According to patent US20210009583A1, “DEUTERATED IMIDAZOPYRIDINES” (UNIVERSITY OF NOTRE DAME DU LAC, priority 2018, published 2021):
Where “and” joins values, the source holds several entries; their conditions need not be identical. Identical values can stand only once. Marks after values point to notes of the source that are not given here.

Tests used:
[1] = Body weight at gross necropsy after 4 weeks of treatment (chronic model); format: in vivo, Balb/c mouse; details: Group 8, INH, individual mice
Experimental: When evaluated in the “Chronic Balb/c mouse model” of M. tuberculosis infection by the method of Lenaerts, A. J., et. al. 2005. Preclinical testing of the nitroimidazopyran PA-824 for activity against M. tuberculosis in a series of in vitro and in vivo models. AAC. 49(6):2294-301. ND-012101 at 200 mg/kg and ND-012101(100 mg/kg)+ABT (100 mg/kg) both achieved 100% mouse survival after 4 weeks of oral dosing.

M. tuberculosis = assay: Chronic Balb/c mouse model of M. tuberculosis infection; format: in vivo

With `NNC(=O)c1ccncc1` [INH, Isoniazid, reference compound] the Weight [1] was 19.6 and 20.2 and 20.1 and 19.9 and 19.2 and 20.8, the “Spleen, gross necropsy observation” value (M. tuberculosis; Group 8, INH, after 4 weeks of treatment, individual mice) was “enlarged” and the “Lung Log10 CFU ± SEM” value (M. tuberculosis; INH (25), 4 Week Treatment) was 4.06 ± 0.11 Log10 CFU. The “Spleen Log10 CFU ± SEM” value (M. tuberculosis; INH (25), 4 Week Treatment) was 2.13 ± 0.12^a Log10 CFU, the “Log reduction vs CTL (Lg)” value (M. tuberculosis; lung, INH (25), 4 Week Treatment) was 1.73 and the “Log reduction vs CTL (Sp)” value (M. tuberculosis; spleen, INH (25), 4 Week Treatment) was 2.87.
